# Measurements reported in ChEMBL document CHEMBL3826966, “A chromatography-free isolation of rohitukine from leaves of Dysoxylum binectariferum: Evaluation for in vitro cytotoxicity, Cdk inhibition and physicochemical properties” (Bioorg Med Chem Lett, 2016).
# Key:
# [1] = target: MAP/microtubule affinity-regulating kinase 3 (Homo sapiens) (UniProt P27448); experiment: Inhibition of human MARK3 (2 to 729 residues) assessed as remaining enzyme activity at 50 uM after 30 mins by 33P-ATP filter-binding assay
# MAP/microtubule affinity-regulating kinase 3 (Homo sapiens), sequence (P27448 whole entry, looked up, the tested form may be a part): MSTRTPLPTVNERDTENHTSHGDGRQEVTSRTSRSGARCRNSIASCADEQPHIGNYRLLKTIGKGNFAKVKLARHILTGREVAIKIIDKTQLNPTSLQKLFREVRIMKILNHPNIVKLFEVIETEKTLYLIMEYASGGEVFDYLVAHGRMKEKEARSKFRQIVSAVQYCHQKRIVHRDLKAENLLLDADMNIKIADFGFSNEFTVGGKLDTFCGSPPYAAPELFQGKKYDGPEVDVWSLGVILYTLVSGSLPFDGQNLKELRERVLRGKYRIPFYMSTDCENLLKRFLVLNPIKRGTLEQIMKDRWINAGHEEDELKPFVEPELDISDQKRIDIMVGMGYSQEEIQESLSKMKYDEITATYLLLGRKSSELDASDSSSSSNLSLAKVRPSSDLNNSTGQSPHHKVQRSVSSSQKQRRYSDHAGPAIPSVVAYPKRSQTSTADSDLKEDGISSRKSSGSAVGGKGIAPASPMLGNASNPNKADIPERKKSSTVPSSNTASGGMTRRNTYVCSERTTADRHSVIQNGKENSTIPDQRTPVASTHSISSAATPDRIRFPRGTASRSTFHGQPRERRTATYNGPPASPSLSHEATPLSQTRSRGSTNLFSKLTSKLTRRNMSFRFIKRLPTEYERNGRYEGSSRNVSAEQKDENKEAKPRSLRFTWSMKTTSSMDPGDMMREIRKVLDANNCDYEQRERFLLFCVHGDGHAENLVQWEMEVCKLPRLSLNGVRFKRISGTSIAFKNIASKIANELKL
# [2] = Cytotoxicity against human FR2 cells assessed as cell growth inhibition after 48 hrs by MTT assay; format: cell-based
# [3] = target: Serine/threonine-protein kinase N2 (Homo sapiens) (UniProt Q16513); experiment: Inhibition of human PRK2 (501 to 984 residues) assessed as remaining enzyme activity at 50 uM after 30 mins by 33P-ATP filter-binding assay
# [4] = target: Serine/threonine-protein kinase Chk1 (Homo sapiens) (UniProt O14757); experiment: Inhibition of human CHK1 (1 to 476 residues) assessed as remaining enzyme activity at 50 uM after 30 mins by 33P-ATP filter-binding assay
# Serine/threonine-protein kinase Chk1 (Homo sapiens), sequence (O14757 whole entry, the tested form may be a part): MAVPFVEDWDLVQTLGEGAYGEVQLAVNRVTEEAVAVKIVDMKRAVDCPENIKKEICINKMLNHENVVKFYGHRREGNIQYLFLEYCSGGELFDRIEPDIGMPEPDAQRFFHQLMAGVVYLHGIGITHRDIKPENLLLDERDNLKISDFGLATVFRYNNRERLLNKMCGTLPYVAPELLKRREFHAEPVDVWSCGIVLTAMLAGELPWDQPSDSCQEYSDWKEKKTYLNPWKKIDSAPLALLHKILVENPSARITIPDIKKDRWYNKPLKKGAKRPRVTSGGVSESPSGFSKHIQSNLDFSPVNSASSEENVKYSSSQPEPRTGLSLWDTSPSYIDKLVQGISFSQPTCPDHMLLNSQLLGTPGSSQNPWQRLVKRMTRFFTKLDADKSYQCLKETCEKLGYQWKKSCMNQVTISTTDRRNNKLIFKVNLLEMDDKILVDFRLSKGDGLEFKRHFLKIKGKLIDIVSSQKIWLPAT
# [5] = target: Eukaryotic translation initiation factor 2-alpha kinase 3 (Homo sapiens) (UniProt Q9NZJ5); experiment: Inhibition of human EIF2AK3 (536 to 1116 residues) assessed as remaining enzyme activity at 50 uM after 30 mins by 33P-ATP filter-binding assay
# Eukaryotic translation initiation factor 2-alpha kinase 3 (Homo sapiens), sequence (Q9NZJ5 whole entry, the tested form may be a part): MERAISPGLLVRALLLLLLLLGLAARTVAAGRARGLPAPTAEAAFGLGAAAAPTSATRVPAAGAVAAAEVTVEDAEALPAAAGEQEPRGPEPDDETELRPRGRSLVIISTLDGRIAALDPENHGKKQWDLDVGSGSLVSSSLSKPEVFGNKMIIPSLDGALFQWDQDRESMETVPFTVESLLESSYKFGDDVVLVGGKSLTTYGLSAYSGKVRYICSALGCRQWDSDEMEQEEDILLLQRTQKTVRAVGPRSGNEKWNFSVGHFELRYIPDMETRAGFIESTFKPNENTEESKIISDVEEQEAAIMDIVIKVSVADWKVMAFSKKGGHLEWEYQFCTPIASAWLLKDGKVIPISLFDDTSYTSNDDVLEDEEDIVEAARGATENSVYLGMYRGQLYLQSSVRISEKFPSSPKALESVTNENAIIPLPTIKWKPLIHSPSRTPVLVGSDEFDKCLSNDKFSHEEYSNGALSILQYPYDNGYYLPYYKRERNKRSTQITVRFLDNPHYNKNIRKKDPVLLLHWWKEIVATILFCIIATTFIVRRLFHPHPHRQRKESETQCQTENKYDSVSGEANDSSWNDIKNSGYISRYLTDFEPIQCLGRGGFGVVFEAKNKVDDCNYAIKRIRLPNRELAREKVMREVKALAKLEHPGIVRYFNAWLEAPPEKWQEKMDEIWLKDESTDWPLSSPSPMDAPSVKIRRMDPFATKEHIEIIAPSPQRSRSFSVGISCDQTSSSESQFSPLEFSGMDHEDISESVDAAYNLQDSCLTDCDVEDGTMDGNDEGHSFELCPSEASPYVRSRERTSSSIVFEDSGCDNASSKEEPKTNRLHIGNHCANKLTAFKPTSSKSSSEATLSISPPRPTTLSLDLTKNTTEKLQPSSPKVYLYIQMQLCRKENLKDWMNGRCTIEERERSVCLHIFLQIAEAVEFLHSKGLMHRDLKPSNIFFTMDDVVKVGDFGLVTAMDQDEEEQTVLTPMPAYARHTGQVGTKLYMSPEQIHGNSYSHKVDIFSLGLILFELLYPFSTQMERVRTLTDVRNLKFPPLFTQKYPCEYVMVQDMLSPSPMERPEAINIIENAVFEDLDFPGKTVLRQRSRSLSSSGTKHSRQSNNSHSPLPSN
# [6] = target: Serine/threonine-protein kinase OSR1 (Homo sapiens) (UniProt O95747); experiment: Inhibition of human OSR1 assessed as remaining enzyme activity at 50 uM after 30 mins by 33P-ATP filter-binding assay
# [7] = tested on: PSN1; experiment: Cytotoxicity against human PSN1 cells assessed as cell growth inhibition after 48 hrs by MTT assay; format: functional; conditions: PSN1, 48 h
# [8] = target: Receptor tyrosine-protein kinase erbB-4 (Homo sapiens) (UniProt Q15303); experiment: Inhibition of human HER4 (706 to 991 residues) assessed as remaining enzyme activity at 50 uM after 30 mins by 33P-ATP filter-binding assay
# [9] = Cytotoxicity against human Hs578T cells assessed as cell growth inhibition after 48 hrs by MTT assay; format: functional; conditions: Hs-578T
# [10] = target: CDK2/Cyclin A2 (Homo sapiens, UniProt P24941); experiment: Inhibition of human Cdk2/cyclin A using histone H1 substrate after 30 mins by 33P-ATP filter-binding assay; format: protein-complex assay
# [11] = target: Misshapen-like kinase 1 (Homo sapiens) (UniProt Q8N4C8); experiment: Inhibition of human MINK1 (1 to 320 residues) assessed as remaining enzyme activity at 50 uM after 30 mins by 33P-ATP filter-binding assay
# Misshapen-like kinase 1 (Homo sapiens), sequence (Q8N4C8 whole entry, looked up, the tested form may be a part): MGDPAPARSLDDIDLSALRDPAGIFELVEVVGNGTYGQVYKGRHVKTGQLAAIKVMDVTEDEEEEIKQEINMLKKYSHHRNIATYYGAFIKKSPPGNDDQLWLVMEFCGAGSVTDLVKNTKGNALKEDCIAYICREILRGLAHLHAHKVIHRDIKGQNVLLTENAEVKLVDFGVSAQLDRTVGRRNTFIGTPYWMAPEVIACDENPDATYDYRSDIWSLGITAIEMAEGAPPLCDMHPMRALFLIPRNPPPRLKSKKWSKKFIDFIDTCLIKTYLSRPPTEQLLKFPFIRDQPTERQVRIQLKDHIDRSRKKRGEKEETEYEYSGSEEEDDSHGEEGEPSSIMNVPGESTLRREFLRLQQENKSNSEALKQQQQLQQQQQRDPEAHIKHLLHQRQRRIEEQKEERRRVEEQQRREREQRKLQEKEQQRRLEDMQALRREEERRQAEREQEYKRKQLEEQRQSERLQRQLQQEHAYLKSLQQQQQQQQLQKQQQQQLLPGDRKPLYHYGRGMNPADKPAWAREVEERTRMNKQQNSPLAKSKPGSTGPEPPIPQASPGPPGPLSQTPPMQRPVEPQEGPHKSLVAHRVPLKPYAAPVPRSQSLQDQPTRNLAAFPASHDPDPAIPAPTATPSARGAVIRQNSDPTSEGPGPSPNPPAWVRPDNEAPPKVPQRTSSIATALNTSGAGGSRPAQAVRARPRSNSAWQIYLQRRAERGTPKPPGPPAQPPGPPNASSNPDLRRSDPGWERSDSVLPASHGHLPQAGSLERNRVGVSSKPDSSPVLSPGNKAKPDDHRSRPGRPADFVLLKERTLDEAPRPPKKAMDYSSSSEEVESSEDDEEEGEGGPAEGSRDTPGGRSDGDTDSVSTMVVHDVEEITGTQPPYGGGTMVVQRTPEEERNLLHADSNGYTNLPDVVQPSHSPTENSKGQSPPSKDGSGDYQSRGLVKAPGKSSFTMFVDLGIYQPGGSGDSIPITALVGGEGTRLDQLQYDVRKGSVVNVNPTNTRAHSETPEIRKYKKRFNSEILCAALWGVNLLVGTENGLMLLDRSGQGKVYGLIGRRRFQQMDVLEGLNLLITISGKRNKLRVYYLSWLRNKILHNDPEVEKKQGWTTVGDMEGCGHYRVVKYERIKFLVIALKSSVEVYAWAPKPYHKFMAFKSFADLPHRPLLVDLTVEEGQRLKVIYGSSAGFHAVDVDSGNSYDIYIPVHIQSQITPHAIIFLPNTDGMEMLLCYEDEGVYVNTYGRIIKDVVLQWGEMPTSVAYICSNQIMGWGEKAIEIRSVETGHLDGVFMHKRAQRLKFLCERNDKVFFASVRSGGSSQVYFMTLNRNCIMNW
# [12] = target: SRSF protein kinase 1 (Homo sapiens) (UniProt Q96SB4); experiment: Inhibition of human SRPK1 (2 to 654 residues) assessed as remaining enzyme activity at 50 uM after 30 mins by 33P-ATP filter-binding assay
# [13] = target: Inhibitor of nuclear factor kappa-B kinase subunit epsilon (Homo sapiens) (UniProt Q14164); experiment: Inhibition of human IKKe (1 to 716 residues) assessed as remaining enzyme activity at 50 uM after 30 mins by 33P-ATP filter-binding assay
# Inhibitor of nuclear factor kappa-B kinase subunit epsilon (Homo sapiens), sequence (Q14164 whole entry, the tested form may be a part): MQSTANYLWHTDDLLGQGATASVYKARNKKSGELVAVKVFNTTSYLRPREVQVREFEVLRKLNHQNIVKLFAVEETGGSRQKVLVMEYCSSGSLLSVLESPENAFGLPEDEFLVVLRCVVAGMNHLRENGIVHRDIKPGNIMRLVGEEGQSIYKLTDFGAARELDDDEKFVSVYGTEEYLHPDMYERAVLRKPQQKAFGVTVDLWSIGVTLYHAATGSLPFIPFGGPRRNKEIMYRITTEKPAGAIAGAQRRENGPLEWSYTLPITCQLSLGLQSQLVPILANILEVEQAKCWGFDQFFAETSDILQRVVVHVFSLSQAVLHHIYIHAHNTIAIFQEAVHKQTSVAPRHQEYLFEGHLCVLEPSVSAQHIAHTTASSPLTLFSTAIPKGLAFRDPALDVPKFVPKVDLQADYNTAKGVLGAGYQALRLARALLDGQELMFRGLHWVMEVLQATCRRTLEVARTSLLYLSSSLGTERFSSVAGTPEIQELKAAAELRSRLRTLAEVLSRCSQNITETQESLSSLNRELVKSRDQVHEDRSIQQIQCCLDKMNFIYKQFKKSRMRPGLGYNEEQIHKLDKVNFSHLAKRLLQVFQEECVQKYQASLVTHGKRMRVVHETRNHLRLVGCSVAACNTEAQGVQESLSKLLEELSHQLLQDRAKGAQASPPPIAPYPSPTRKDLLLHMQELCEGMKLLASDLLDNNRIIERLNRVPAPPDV
# [14] = target: Tyrosine-protein kinase BTK (Homo sapiens) (UniProt Q06187); experiment: Inhibition of human BTK (2 to 659 residues) assessed as remaining enzyme activity at 50 uM after 30 mins by 33P-ATP filter-binding assay
# Tyrosine-protein kinase BTK (Homo sapiens), sequence (Q06187 whole entry, the tested form may be a part): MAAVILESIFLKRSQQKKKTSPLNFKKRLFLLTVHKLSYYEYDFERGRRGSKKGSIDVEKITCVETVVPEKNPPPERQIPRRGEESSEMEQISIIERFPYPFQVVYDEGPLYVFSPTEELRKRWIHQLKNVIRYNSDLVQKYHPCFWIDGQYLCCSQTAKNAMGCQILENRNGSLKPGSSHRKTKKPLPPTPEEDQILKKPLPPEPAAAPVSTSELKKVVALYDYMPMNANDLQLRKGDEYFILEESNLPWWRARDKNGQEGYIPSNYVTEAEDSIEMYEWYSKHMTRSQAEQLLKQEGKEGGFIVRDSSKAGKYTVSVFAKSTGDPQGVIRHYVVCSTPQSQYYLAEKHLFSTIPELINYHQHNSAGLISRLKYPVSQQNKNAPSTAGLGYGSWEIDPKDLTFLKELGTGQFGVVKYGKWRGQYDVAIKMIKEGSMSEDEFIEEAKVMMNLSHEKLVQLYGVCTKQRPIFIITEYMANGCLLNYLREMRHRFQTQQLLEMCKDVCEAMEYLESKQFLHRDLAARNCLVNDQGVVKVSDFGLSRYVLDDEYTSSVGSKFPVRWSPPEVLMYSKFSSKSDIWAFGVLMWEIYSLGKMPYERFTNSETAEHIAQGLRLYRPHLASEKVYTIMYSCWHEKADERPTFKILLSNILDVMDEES
# [15] = target: Mitogen-activated protein kinase 10 (Homo sapiens) (UniProt P53779); experiment: Inhibition of human JNK3 (40 to 422 residues) assessed as remaining enzyme activity at 50 uM after 30 mins by 33P-ATP filter-binding assay
# [16] = target: Mitogen-activated protein kinase 15 (Homo sapiens) (UniProt Q8TD08); experiment: Inhibition of human ERK8 (2 to 544 residues) assessed as remaining enzyme activity at 50 uM after 30 mins by 33P-ATP filter-binding assay
# [17] = target: Casein kinase II (Homo sapiens) (UniProt P67870+P68400+P19784); experiment: Inhibition of human CK2 assessed as remaining enzyme activity at 50 uM after 30 mins by 33P-ATP filter-binding assay; format: protein-complex assay
# [18] = Partition coefficient, logP of the compound in water/PBS buffer at pH 7.4 at 25 degC after 20 mins by shake flask method; format: physicochemical
# [19] = Cell cycle arrest in human HL60 cells assessed as accumulation at G1 phase at 1 uM (reference value: 59 %); format: functional, cell-based; conditions: HL-60
# [20] = Stability in pH 7.4 buffer at 120 ug/ml after 8 hrs by RP-HPLC analysis; format: physicochemical; conditions: pH 7.4, 8 h
# [21] = tested on: HL-60; experiment: Induction of apoptosis in human HL60 cells assessed as apoptotic cells at 5 uM (reference value: 1 %); format: functional
# [22] = target: Insulin-like growth factor 1 receptor (Homo sapiens) (UniProt P08069); experiment: Inhibition of human IGF1R (954 to 1367 residues) assessed as remaining enzyme activity at 50 uM after 30 mins by 33P-ATP filter-binding assay
# [23] = target: Serine/threonine-protein kinase MARK1 (Homo sapiens) (UniProt Q9P0L2); experiment: Inhibition of human MARK1 (2 to 795 residues) assessed as remaining enzyme activity at 50 uM after 30 mins by 33P-ATP filter-binding assay
# [24] = Stability in SIF solution assessed as reduction in compound AUC at 120 ug/ml after 8 hrs by RP-HPLC analysis; format: physicochemical; conditions: read-out: Drug degradation
# [25] = target: CDK9/cyclin T1 (Homo sapiens) (UniProt O60563+P50750); experiment: Inhibition of human Cdk9/T1 using YSPTSPSYSPTSPSYSPTSPKKK peptide as substrate assessed as remaining enzyme activity at 50 uM after 30 mins by 33P-ATP filter-binding assay; format: protein-complex assay
# [26] = Cell cycle arrest in human HL60 cells assessed as accumulation at S phase at 1 uM (reference value: 36 %); format: functional, cell-based; conditions: HL-60
# [27] = Cytotoxicity against human HL60 cells assessed as cell growth inhibition after 48 hrs by MTT assay; format: functional; conditions: HL-60, 48 h
# [28] = target: Mitogen-activated protein kinase kinase kinase 5 (Homo sapiens) (UniProt Q99683); experiment: Inhibition of human ASK1 (670 to 950 residues) assessed as remaining enzyme activity at 50 uM after 30 mins by 33P-ATP filter-binding assay
# [29] = Cytotoxicity against human MIAPaCa2 cells assessed as cell growth inhibition after 48 hrs by MTT assay; format: functional; conditions: MIA PaCa-2, 48 h
# [30] = target: RAC-beta serine/threonine-protein kinase (Homo sapiens) (UniProt P31751); experiment: Inhibition of human PKBbeta assessed as remaining enzyme activity at 50 uM after 30 mins by 33P-ATP filter-binding assay
# [31] = target: Receptor-interacting serine/threonine-protein kinase 2 (Homo sapiens) (UniProt O43353); experiment: Inhibition of human RIPK2 (2 to 311 residues) assessed as remaining enzyme activity at 50 uM after 30 mins by 33P-ATP filter-binding assay
# [32] = tested on: U-251; experiment: Cytotoxicity against human U251 cells assessed as cell growth inhibition after 48 hrs by MTT assay; format: functional; conditions: U-251, 48 h
# [33] = target: Serine/threonine-protein kinase PAK 5 (Homo sapiens) (UniProt Q9P286); experiment: Inhibition of human PAK5 (2 to 719 residues) assessed as remaining enzyme activity at 50 uM after 30 mins by 33P-ATP filter-binding assay
smiles,measurement,setting,value
Cc1cc(=O)c2c(O)cc(O)c([C@H]3CCN(C)C[C@H]3O)c2o1 [ROHITUKINE],Activity,[1],41%
same,GI50 at 48 h,[2],> 50 µM
same,Activity,[3],42%
same,Activity,[4],52%
same,Activity,[5],82%
same,Activity,[6],93%
same,GI50,[7],23 µM
same,Activity,[8],79%
same,GI50,[9],20 µM
same,IC50,[10],7.3 µM
same,Activity,[11],73%
same,Activity,[12],40%
same,Activity,[13],69%
same,Activity,[14],58%
same,Activity,[15],87%
same,Activity,[16],19%
same,Activity,[17],90%
same,logD at 20 min,[18],-0.55
same,Activity,[19],34%
same,Stability,[20],Stable
same,Activity,[21],4%
same,Activity,[22],113%
same,Activity,[23],67%
same,"degraded at 8 h, 120 ug/ml",[24],2.42%
same,Activity,[25],7%
same,Activity,[26],50%
same,GI50,[27],10 µM
same,Activity,[28],96%
same,GI50,[29],19 µM
same,Activity,[30],80%
same,Activity,[31],63%
same,GI50,[32],32 µM
same,Activity,[33],87%
